Assays:
[1] = test system: P. capsici zoospores; assay: Encystment assay with phage-displayed peptides; type: cell-based, Phytophthora capsici; conditions: phage 2.5×10^9 virion; 20 minute incubation at room temperature
Experimental: Following binding, the pathogen is observed for alterations in its development or ability to infect a host. […] The range of phage concentrations can vary, but generally ranges between 1 to 10×10^9 virion/μl. A negative control containing no phage is included in each screening. After an incubation period of usually about 20 minutes at room temperature, the number of zoospores encysted at each phage concentration is determined. Using this method it is possible to rationally select peptides of defined character and evaluate them for species- and life stage-specific induction of receptor-mediated functional responses, such a zoospore encystment. Peptides found to interfere with the development of a pathogen can be used to prevent or limit infection of a host with the pathogen.
Selected phage clones were isolated according to Smith and Scott (Methods in Enzymology, 217:228-257, 1993), and twice purified using polyethylene glycol as described above with the exception that phage were resuspended in distilled water instead of TBS. The virion concentration was calculated by measuring the absorbance at A269 (Smith and Scott, Methods in Enzymology, 217:228-257, 1993). Water droplets of approximately 20 μl containing about 400 freshly released zoospores were incubated with phage at two-fold serial dilutions so that they contained phage-bearing peptides at concentrations of either 1×10^10, 5×10^9, 2.5×10^9 or 1.25×10^9 virion/μl of droplet. A negative control received no phage and was used to monitor the amount of spontaneous encystment in the zoospore population. After a 20 minute incubation at room temperature, the number of encysted zoospores was counted using a microscope at 100× magnification. The virion concentration of phage was calculated according to Smith and Scott (Methods in Enzymology, 217:228-257, 1993).

[2] = test system: P. capsici zoospores; assay: Binding of phage-displayed peptides to zoospores (eluted phage titered as TU); set-up: species or system Phytophthora capsici; conditions: 5×10^10 TU phage with 200,000 zoospores, 30 minutes incubation
Experimental: An aliquot of 10^11 transducing units (TU) from the f8-1 library (Petrinko et al., Protein Engineering, 9:797-801, 1996) was added to 10^6 freshly released P. capsici zoospores at room temperature in 4 ml of 50 mM LiCl and incubated for 30 minutes at room temperature with gentle agitation. The same procedure was used for the 188-4 library except in some cases P. sojae zoospores were used (Soj clones). The zoospores containing the bound phage were washed 10 times in 150 μl of 50 mM LiCl and centrifuged at 1000×g for 45 seconds to remove unbound phage. After the tenth wash, the bound phage were eluted with 200 μl of elution buffer (0.1 N HCl, glycine sufficient to bring pH to 2.2, 1 mg/ml bovine serum albumin). […] Selective enrichment of the zoospore-binding phage was monitored by calculating the percent yield after each round of selection as described in Smith and Scott (Methods in Enzymology, 217:228-257, 1993). This was done by calculating the total phage (expressed as transducing units) that was applied to the zoospores and measuring the total output of phage (as transducing units) that was recovered from the zoospores and expressing the result as a percentage. […]
Phage vector was included as a control treatment. […] Phage eluted from the zoospore population were titered in E. coli K91BluKan cells and expressed as total transducing units. […]

[3] = test system: P. capsici cysts; assay: Binding of phage-displayed peptides to cysts (eluted phage titered as TU); set-up: species or system Phytophthora capsici; conditions: 5×10^10 TU phage
[4] = test system: U. appendiculatus; assay: Inhibition of germling (germinated uredospore) growth; type: cell-based, Uromyces appendiculatus; conditions: phage-peptide clones, ~250 germinated spores with 3×10^12 at 20 C overnight; listed as clone 19
Excerpt: Part D entails the generation of additional Sub-libraries by use of further rounds of biopanning including rounds 2, 3 and 4. Part B is repeated three times: • 1. For biopanning round 2, 4.2×10^11 TU phages from the 2nd Sub-library are used to produce Sub-library 3; • 2. For biopanning round 3, 5.6×10^11 TU phages amplified from the 2nd biopanning are used to produce Sub-library 4; and • 3. For biopanning round 4, 5.1×10^11 TU phages amplified from the 3rd biopanning are used to produce Sub-library 5. Colonies from biopanning-round 4 are picked, sequenced, and tested for inhibition of germling growth.
Part E entails testing for inhibition of uredospore growth. Incubate 30 ul of germinated spores (˜250) with 3×10^12 at 20 C overnight. Assess fungal germ tube growth (i.e. germling growth) and compare with water and f88, i.e. phage only without any display peptide, as controls.

Row | Sequence | level of encystment of P. capsici zoospores [1] | further results
1 | AVSPNVHDG (Random peptide insert) [Pc42] | high levels of encystment | 
2 | ADRPSMSPT (Random peptide insert) [Pc87] | high levels of encystment | phage eluted from zoospores [2]: More than 10^7 TU; phage eluted from cysts [3]: less than 10^4 TU
3 | AAPDLQDAM (Random peptide insert) [Pc56] | low levels of encystment | 
4 | ADITDPMGA (Random peptide insert) [Pc64] | high levels of encystment | 
5 | NHVSTLKTRHRLIPF (Random peptide insert) [Pp 19] |  | growth inhibition of U. appendiculatus (germlings) [4]: inhibition
6 | ADPPRTVST (Random peptide insert) [Pc78] | high levels of encystment | 
7 | AGLTSPNDM (Random peptide insert) [Pc15B] | low levels of encystment | 
8 | AEHQNSAGP (Random peptide insert) [Pc45] | low levels of encystment | phage eluted from zoospores [2]: about 50,000 TU
